# Laboratory results as given in ChEMBL document CHEMBL4699525, “Design and synthesis of new indanol-1,2,3-triazole derivatives as potent antitubercular and antimicrobial agents” (Bioorg Med Chem Lett, 2020).
# Active and inactive are the calls of the source. The calls are words filed in the database; no cut-off is given here.
# Experiments:
# Escherichia coli = experiment: Antibacterial activity against Escherichia coli assessed as inhibition of bacterial growth incubated for 24 hrs by agar well diffusion method; type: functional
# Shigella boydii [1] = experiment: Antibacterial activity against Shigella boydii assessed as inhibition of bacterial growth incubated for overnight by CLSI based method; type: functional
# Klebsiella aerogenes [2] = experiment: Antibacterial activity against Enterobacter aerogenes assessed as inhibition of bacterial growth incubated for 24 hrs by agar well diffusion method; type: functional
# Aspergillus niger [3] = experiment: Antifungal activity against Aspergillus niger assessed as inhibition of fungal growth incubated for 24 hrs by agar well diffusion method; type: functional
# Aspergillus niger [4] = experiment: Antifungal activity against Aspergillus niger assessed as inhibition of […] growth incubated for overnight by CLSI based method; type: functional
# Pseudomonas aeruginosa = experiment: Antibacterial activity against Pseudomonas aeruginosa assessed as inhibition of bacterial growth incubated for 24 hrs by agar well diffusion method; type: functional
# Staphylococcus aureus [5] = experiment: Antibacterial activity against Staphylococcus aureus assessed as inhibition of bacterial growth incubated for 24 hrs by agar well diffusion method; type: functional
# Bacillus cereus = experiment: Antibacterial activity against Bacillus cereus assessed as inhibition of bacterial growth incubated for 24 hrs by agar well diffusion method; type: functional
# [6] = system: Salmonella enterica subsp. enterica serovar Abony; experiment: Antibacterial activity against Salmonella abony assessed as inhibition of bacterial growth incubated for 24 hrs by agar well diffusion method; type: functional
# Salmonella typhi = experiment: Antibacterial activity against Salmonella typhi assessed as inhibition of bacterial growth incubated for 24 hrs by agar well diffusion method; type: functional, Salmonella enterica subsp. enterica serovar Typhi
# Saccharomyces cerevisiae [7] = experiment: Antifungal activity against Saccharomyces cerevisiae assessed as inhibition of fungal growth incubated for 24 hrs by agar well diffusion method; type: functional
# Bacillus subtilis = experiment: Antibacterial activity against Bacillus subtilis assessed as inhibition of bacterial growth incubated for 24 hrs by agar well diffusion method; type: functional
# Shigella boydii [8] = experiment: Antibacterial activity against Shigella boydii assessed as inhibition of bacterial growth incubated for 24 hrs by agar well diffusion method; type: functional
# Candida albicans [9] = experiment: Antifungal activity against Candida albicans assessed as inhibition of fungal growth incubated for 24 hrs by agar well diffusion method; type: functional
# Klebsiella aerogenes [10] = experiment: Antibacterial activity against Enterobacter aerogenes assessed as inhibition of bacterial growth incubated for overnight by CLSI based method; type: functional
# Staphylococcus aureus [11] = experiment: Antibacterial activity against Staphylococcus aureus assessed as inhibition of bacterial growth incubated for overnight by CLSI based method; type: functional
# Candida albicans [12] = experiment: Antifungal activity against Candida albicans assessed as inhibition of […] growth incubated for overnight by CLSI based method; type: functional
# Saccharomyces cerevisiae [13] = experiment: Antifungal activity against Saccharomyces cerevisiae assessed as inhibition of […] growth incubated for overnight by CLSI based method; type: functional
# [14] = biological target: T1, Enoyl-[acyl-carrier-protein] reductase [NADH] (Mycobacterium tuberculosis) (UniProt P9WGR1); experiment: Inhibition of InhA in Mycobacterium tuberculosis H37Rv assessed antitubercular activity by measuring inhibition of bacterial growth incubated for 7 days by MABA assay; settings: time 7.0 day
# T1 sequence (whole entry): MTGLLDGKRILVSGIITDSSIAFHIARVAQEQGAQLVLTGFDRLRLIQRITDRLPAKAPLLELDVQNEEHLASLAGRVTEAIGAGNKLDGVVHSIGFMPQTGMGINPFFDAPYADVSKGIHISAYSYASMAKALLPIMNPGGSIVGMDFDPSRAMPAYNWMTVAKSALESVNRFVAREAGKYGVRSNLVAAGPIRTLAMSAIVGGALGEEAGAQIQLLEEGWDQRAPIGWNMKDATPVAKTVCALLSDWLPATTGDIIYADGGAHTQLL
# [15] = Cytotoxicity against human HEK293 cells assessed as inhibition of cell growth at 25 uM incubated for 48 hrs by MTT assay; type: cell-based
# [16] = Salmonella enterica subsp. enterica serovar Typhi
SMILES,diameter of the inhibition zone (DIZ) (Escherichia coli),MIC (Shigella boydii [1]),diameter of the inhibition zone (DIZ) (Klebsiella aerogenes [2]),diameter of the inhibition zone (DIZ) (Aspergillus niger [3]),MIC (Aspergillus niger [4]),diameter of the inhibition zone (DIZ) (Pseudomonas aeruginosa),diameter of the inhibition zone (DIZ) (Staphylococcus aureus [5]),diameter of the inhibition zone (DIZ) (Bacillus cereus),diameter of the inhibition zone (DIZ) [6],diameter of the inhibition zone (DIZ) (Salmonella typhi),diameter of the inhibition zone (DIZ) (Saccharomyces cerevisiae [7]),diameter of the inhibition zone (DIZ) (Bacillus subtilis),diameter of the inhibition zone (DIZ) (Shigella boydii [8]),diameter of the inhibition zone (DIZ) (Candida albicans [9]),MIC (Klebsiella aerogenes [10]),MIC (Staphylococcus aureus [11]),MIC (Candida albicans [12]),MIC [14],"inhibition at 48 h, 25 µM [15]",diameter of the inhibition zone (DIZ) (Salmonella typhi; [16]),also measured
Brc1cccc(-n2cc(COc3ccc4c(c3)CCC4)nn2)c1,15 mm,130 µg/mL,16 mm,6 mm,190 µg/mL,14 mm,19 mm,10 mm,14 mm,8 mm,7 mm,17 mm,20 mm,14 mm,150 µg/mL,100 µg/mL,100 µg/mL,> 25 µM,–,–,MIC (Saccharomyces cerevisiae [13]): 160 µg/mL
CN(C)[C@@H]1C(O)=C(C(N)=O)C(=O)[C@@]2(O)C(O)=C3C(=O)c4c(O)cccc4[C@@](C)(O)[C@H]3C[C@@H]12 [TETRACYCLINE],29 mm,20 µg/mL,33 mm,–,–,32 mm,29 mm,33 mm,32 mm,33 mm,–,32 mm,34 mm,–,30 µg/mL,20 µg/mL,–,–,–,–,–
COc1cccc(-n2cc(COc3ccc4c(c3)CCC4)nn2)c1,10 mm,–,inactive,–,–,9 mm,12 mm,inactive,11 mm,–,inactive,inactive,13 mm,12 mm,–,–,–,12.5 µM,25.8%,–,–
COc1ccccc1-n1cc(COc2ccc3c(c2)CCC3)nn1,inactive,–,inactive,inactive,–,inactive,10 mm,inactive,inactive,–,inactive,inactive,inactive,10 mm,–,–,–,12.5 µM,19.8%,inactive,–
O=C(Cn1cc(COc2ccc3c(c2)CCC3)nn1)Nc1cccc([N+](=O)[O-])c1,10 mm,140 µg/mL,10 mm,5 mm,220 µg/mL,6 mm,10 mm,12 mm,10 mm,10 mm,9 mm,11 mm,10 mm,10 mm,145 µg/mL,140 µg/mL,150 µg/mL,> 25 µM,–,–,MIC (Saccharomyces cerevisiae [13]): 135 µg/mL
Fc1ccccc1-n1cc(COc2ccc3c(c2)CCC3)nn1,inactive,–,inactive,inactive,–,inactive,15 mm,inactive,inactive,–,10 mm,inactive,inactive,9 mm,–,–,–,6.25 µM,21%,inactive,–
OC(Cn1cncn1)(Cn1cncn1)c1ccc(F)cc1F [FLUCONAZOLE],–,–,–,30 mm,8 µg/mL,–,–,–,–,–,30 mm,–,–,30 mm,–,–,25 µg/mL,–,–,–,MIC (Saccharomyces cerevisiae [13]): 12 µg/mL
Cc1cc(C)c(-n2cc(COc3ccc4c(c3)CCC4)nn2)c(C)c1,inactive,–,inactive,inactive,–,inactive,inactive,inactive,inactive,–,inactive,inactive,inactive,inactive,–,–,–,6.25 µM,16.6%,inactive,–
O=C(Cn1cc(COc2ccc3c(c2)CCC3)nn1)Nc1ccccc1,11 mm,130 µg/mL,16 mm,9 mm,170 µg/mL,10 mm,23 mm,12 mm,11 mm,12 mm,12 mm,12 mm,11 mm,13 mm,80 µg/mL,140 µg/mL,85 µg/mL,> 25 µM,–,–,MIC (Saccharomyces cerevisiae [13]): 110 µg/mL
O=C(Cn1cc(COc2ccc3c(c2)CCC3)nn1)Nc1ccc(F)cc1,inactive,–,inactive,inactive,–,inactive,13 mm,inactive,inactive,–,inactive,inactive,11 mm,13 mm,–,–,–,> 25 µM,–,inactive,–
c1ccc(-n2cc(COc3ccc4c(c3)CCC4)nn2)cc1,inactive,–,inactive,inactive,–,inactive,7 mm,inactive,inactive,–,8 mm,inactive,inactive,12 mm,–,–,–,25 µM,23.4%,inactive,–
Cc1cccc(-n2cc(COc3ccc4c(c3)CCC4)nn2)c1,inactive,–,inactive,inactive,–,inactive,6 mm,inactive,inactive,–,13 mm,inactive,inactive,10 mm,–,–,–,12.5 µM,23.4%,inactive,–
O=C(Cn1cc(COc2ccc3c(c2)CCC3)nn1)Nc1ccc(Cl)cc1,inactive,–,inactive,inactive,–,inactive,8 mm,inactive,inactive,–,10 mm,inactive,inactive,15 mm,–,–,–,> 25 µM,–,inactive,–
